# According to patent US8507489B2, “Bicyclic triazoles as protein kinase modulators” (SGX Pharmaceuticals, Inc., priority 2006, dated 2013):
# Counter-ions that a name gives are not always drawn.
# Assays:
# [1] = tested on: GTL16 cells; experiment: 96-well XTT cell survival assay (GTL16 cells); format: cell-based
# Method: GTL16 cells were maintained in DMEM Medium supplemented with 10% fetal bovine serum (FBS) 2 mM L-Glutamine and 100 units penicillin/100 μg streptomycin, at 37° C. in 5% CO2.
# Compounds were tested in the following assays in duplicate.
# 96-well XTT assay (GTL16 cells): One day prior to assay the growth media was aspirated off and assay media was added to cells. On the day of the assay, the cells were grown in assay media containing various concentrations of compounds (duplicates) on a 96-well flat bottom plate for 72 hours at 37° C. in 5% CO2. The starting cell number was 5000 cells per well and volume was 120 μl. At the end of the 72-hour incubation, 40 μl of XTT labeling mixture (50:1 solution of sodium 3′-[1-(phenylaminocarbonyl)-3,4-tetrazolium]-bis (4-methoxy-6-nitro) benzene sulfonic acid hydrate and Electron-coupling reagent: PMS (N-methyl dibenzopyrazine methyl sulfate) were added to each well of the plate. After an additional 5 hours of incubation at 37° C., the absorbance reading at 450 nm with a background correction of 650 nm was measured with a spectrophotometer.
# [2] = target: c-MET (Homo sapiens, UniProt P08581); experiment: MET luminescence-based enzyme assay (Kinase-Glo); format: biochemical
# c-MET, sequence (P08581 1078-1345 limits assumed): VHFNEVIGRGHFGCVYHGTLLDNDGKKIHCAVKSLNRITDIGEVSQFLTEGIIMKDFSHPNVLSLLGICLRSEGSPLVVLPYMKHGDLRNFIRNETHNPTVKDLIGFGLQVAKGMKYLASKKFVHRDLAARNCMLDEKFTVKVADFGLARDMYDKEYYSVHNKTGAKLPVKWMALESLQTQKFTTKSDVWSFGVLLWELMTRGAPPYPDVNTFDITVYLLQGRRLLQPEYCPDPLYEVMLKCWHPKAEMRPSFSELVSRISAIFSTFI
# Method: The subscript designates positive or negative controls. The Z′ score for a robust screening assay should be ≧0.50. The typical threshold=μ+−3*σ+. Any value that falls below the threshold was designated a “hit”.
# MET Luminescence-Based Enzyme Assay
# MET kinase (see below), Kinase-Glo™ (Promega Cat#V6712).
# Negative controls contained 10 μM staurosporine.
molecule,measurement,setting,value
"CCN1CC(n2cc(-c3cnc4ccc(Sc5nnc6ccc(C)nn56)cc4c3)cn2)C1 [Compound 61, 3-[1-(1-Ethyl-azetidin-3-yl)-1H-pyrazol-4-yl]-6-(6-methyl-[1,2,4]triazolo[4,3-b]pyridazin-3-ylsulfanyl)-quinoline]",IC50,"[1]; Homo sapiens, GTL 16, 72 hours",≤ 100 nM
same,IC50,[2],< 100 nM
"CCc1ccc2nnc(Sc3ccc4ncc(-c5cnn(C)c5)cc4c3)n2n1 [Compound 58, 6-(6-Ethyl-[1,2,4]triazolo[4,3-b]pyridazin-3-ylsulfanyl)-3-(1-methyl-1H-pyrazol-4-yl)-quinoline]",IC50,"[1]; Homo sapiens, GTL 16, 72 hours",≤ 100 nM
same,IC50,[2],< 100 nM
"CN(C)c1ccnc2ccc(Sc3nnc4ccc(-c5cnn(C)c5)nn34)cc12 [Compound 29, Dimethyl-{6-[6-(1-methyl-1H-pyrazol-4-yl)-[1,2,4]triazolo[4,3-b]pyridazin-3-ylsulfanyl]-quinolin-4-yl}-amine]",IC50,[2],100 to 1000 nM
"CN(C)CCn1cnc2ccc(Sc3nnc4ccc(-c5cnn(C)c5)nn34)cc21 [Compound 32, Dimethyl-(2-{6-[6-(1-methyl-1H-pyrazol-4-yl)-[1,2,4]triazolo[4,3-b]pyridazin-3-ylsulfanyl]-benzoimidazol-1-yl}-ethyl)-amine, formic acid salt]",IC50,"[1]; Homo sapiens, GTL 16, 72 hours",1000 to 10000 nM
same,IC50,[2],100 to 1000 nM
"Cn1cc(-c2ccc3nnc(Sc4ccc5ncc(N)cc5c4)n3n2)cn1 [Compound 33, 6-[6-(1-Methyl-1H-pyrazol-4-yl)-[1,2,4]triazolo[4,3-b]pyridazin-3-ylsulfanyl]-quinolin-3-ylamine, trifluoroacetic acid salt]",IC50,"[1]; Homo sapiens, GTL 16, 72 hours",≤ 100 nM
same,IC50,[2],< 100 nM
"COCCn1cnc2ccc(Sc3nnc4ccc(-c5cnn(C)c5)nn34)cc21 [Compound 31, 3-[3-(2-Methoxy-ethyl)-3H-benzoimidazol-5-ylsulfanyl]-6-(1-methyl-1H-pyrazol-4-yl)-[1,2,4]triazolo[4,3-b]pyridazine]",IC50,"[1]; Homo sapiens, GTL 16, 72 hours",100 to 1000 nM
same,IC50,[2],< 100 nM
"Cc1ccc2nnc(Sc3ccc4ncc(-c5cnn(C6CN(C(=O)OC(C)(C)C)C6)c5)cc4c3)n2n1 [Compound 64, 3-{4-[6-(6-Methyl-[1,2,4]triazolo[4,3-b]pyridazin-3-ylsulfanyl)-quinolin-3-yl]-pyrazol-1-yl}-azetidine-1-carboxylic acid tert-butyl ester]",IC50,"[1]; Homo sapiens, GTL 16, 72 hours",≤ 100 nM
same,IC50,[2],< 100 nM
"Cc1ccc2nnc(Sc3ccc4ncc(-c5cnn(C6CN(C(C)C)C6)c5)cc4c3)n2n1 [Compound 69, 3-[1-(1-Isopropyl-azetidin-3-yl)-1H-pyrazol-4-yl]-6-(6-methyl-[1,2,4]triazolo[4,3-b]pyridazin-3-ylsulfanyl)-quinoline]",IC50,"[1]; Homo sapiens, GTL 16, 72 hours",≤ 100 nM
same,IC50,[2],< 100 nM
"(2:1) mixture of 3-(7-Methyl-benzothiazol-6-ylsulfanyl)-6-(1-methyl-1H-pyrazol-4-yl)-[1,2,4]triazolo[4,3-b]pyridazine and 3-(5-Methyl-benzothiazol-6-ylsulfanyl)-6-(1-methyl-1H-pyrazol-4-yl)-[1,2,4]triazolo[4,3-b]pyridazine [Compound 8]",IC50,[1]; 72 hours,≤ 100 nM
same,IC50,[2],< 100 nM
"CCn1cnc2ccc(Sc3nnc4ccc(-c5cnn(C)c5)nn34)cc21 [Compound 30, 3-(3-Ethyl-3H-benzoimidazol-5-ylsulfanyl)-6-(1-methyl-1H-pyrazol-4-yl)-[1,2,4]triazolo[4,3-b]pyridazine]",IC50,"[1]; Homo sapiens, GTL 16, 72 hours",≤ 100 nM
same,IC50,[2],< 100 nM
"CNc1ccc2nnc(Sc3ccc4nccc(Sc5nnc6ccc(NC)nn56)c4c3)n2n1 [Compound 48, 4,6-{6-Methylamino-[1,2,4]triazolo[4,3-b]pyridazin-3-ylsulfanyl}-quinoline]",IC50,[2],> 10000 nM
"Cc1ccc2nnc(Sc3cc4cc(-c5cnn(C)c5)cnc4cc3F)n2n1 [Compound 52, 7-Fluoro-3-(1-methyl-1H-pyrazol-4-yl)-6-(6-methyl-[1,2,4]triazolo[4,3-b]pyridazin-3-ylsulfanyl)-quinoline]",IC50,"[1]; Homo sapiens, GTL 16, 72 hours",≤ 100 nM
same,IC50,[2],< 100 nM
"CNC(=O)c1ccc(-c2ccc3nnc(Sc4cc5cccnc5cc4C)n3n2)cc1F [Compound 18, 2-Fluoro-N-methyl-4-[3-(7-methyl-quinolin-6-ylsulfanyl)-[1,2,4]triazolo[4,3-b]pyridazin-6-yl]-benzamide]",IC50,"[1]; Homo sapiens, GTL 16, 72 hours",≤ 100 nM
same,IC50,[2],< 100 nM
"Fc1cccc(-c2cnc3nnc(Sc4ccc5ncccc5c4)n3n2)c1 [Compound 9, 6-[6-(3-Fluoro-phenyl)-[1,2,4]triazolo[4,3-b][1,2,4]triazin-3-ylsulfanyl]-quinoline]",IC50,"[1]; Homo sapiens, GTL 16, 72 hours",≤ 100 nM
same,IC50,[2],< 100 nM
"Cn1cc(-c2ccc3nnc(Sc4cc5scnc5cc4F)n3n2)cn1 [Compound 15, 3-(5-Fluoro-benzothiazol-6-ylsulfanyl)-6-(1-methyl-1H-pyrazol-4-yl)-[1,2,4]triazolo[4,3-b]pyridazine]",IC50,"[1]; Homo sapiens, GTL 16, 72 hours",≤ 100 nM
same,IC50,[2],< 100 nM
"Cc1ccc2nnc(Sc3cc4cccnc4cc3F)n2n1 [Compound 51, 7-Fluoro-6-(6-methyl-[1,2,4]triazolo[4,3-b]pyridazin-3-ylsulfanyl)-quinoline]",IC50,[2],100 to 1000 nM
"Cc1ccc2nnc(Sc3ccc4ncc(-c5cn[nH]c5)cc4c3)n2n1 [Compound 59, 6-(6-Methyl-[1,2,4]triazolo[4,3-b]pyridazin-3-ylsulfanyl)-3-(1H-pyrazol-4-yl)-quinoline]",IC50,"[1]; Homo sapiens, GTL 16, 72 hours",100 to 1000 nM
same,IC50,[2],< 100 nM
"Cc1ccc2nnc(Sc3ccc4ncc(-c5cnn(CCN6CCOCC6)c5)cc4c3)n2n1 [Compound 44, 6-(6-Methyl-[1,2,4]triazolo[4,3-b]pyridazin-3-ylsulfanyl)-3-[1-(2-morpholin-4-yl-ethyl)-1H-pyrazol-4-yl]-quinoline]",IC50,"[1]; Homo sapiens, GTL 16, 72 hours",≤ 100 nM
same,IC50,[2],< 100 nM
"CNc1ccc2nnc(Sc3ccc4ncccc4c3-c3cnn(C)c3)n2n1 [Compound 49, Methyl-{3-[5-(1-methyl-1H-pyrazol-4-yl)-quinolin-6-ylsulfanyl]-[1,2,4]triazolo[4,3-b]pyridazin-6-yl}-amine]",IC50,[2],> 10000 nM
"Cc1ccc2nnc(Sc3ccc4ncc(-c5cnn(C6CN(C)C6)c5)cc4c3)n2n1 [Compound 63, 3-[1-(1-Methyl-azetidin-3-yl)-1H-pyrazol-4-yl]-6-(6-methyl-[1,2,4]triazolo[4,3-b]pyridazin-3-ylsulfanyl)-quinoline]",IC50,"[1]; Homo sapiens, GTL 16, 72 hours",≤ 100 nM
same,IC50,[2],< 100 nM
"Cc1ccc2nnc(Sc3ccc4ncc(-c5cnn(C)c5)cc4c3F)n2n1 [Compound 56, 5-Fluoro-3-(1-methyl-1H-pyrazol-4-yl)-6-(6-methyl-[1,2,4]triazolo[4,3-b]pyridazin-3-ylsulfanyl)-quinoline]",IC50,"[1]; Homo sapiens, GTL 16, 72 hours",≤ 100 nM
same,IC50,[2],< 100 nM
"Methyl-{3-[4-(4-methyl-4H-[1,2,4]triazol-3-ylsulfanyl)-quinolin-6-ylsulfanyl]-[1,2,4]triazolo[4,3-b]pyridazin-6-yl}-amine (A), Methyl-{3-[6-(4-methyl-4H-[1,2,4]triazol-3-ylsulfanyl)-quinolin-4-ylsulfanyl]-[1,2,4]triazolo[4,3-b]pyridazin-6-yl}-amine (B) [Compound 47]",IC50,[2],1000 to 10000 nM
"Cc1ccc2nnc(Sc3ccc4ncccc4c3)n2n1 [Compound 37, 6-(6-Methyl-[1,2,4]triazolo[4,3-b]pyridazin-3-ylsulfanyl)-quinoline]",IC50,[2],100 to 1000 nM
"Cc1cnc2ccc(Sc3nnc4ccc(C)nn34)cc2c1 [Compound 54, 3-Methyl-6-(6-methyl-[1,2,4]triazolo[4,3-b]pyridazin-3-ylsulfanyl)-quinoline]",IC50,[2],100 to 1000 nM
"Cn1cc(-c2ccc3nnc(Sc4ccc5nccc(N)c5c4)n3n2)cn1 [Compound 34, 6-[6-(1-Methyl-1H-pyrazol-4-yl)-[1,2,4]triazolo[4,3-b]pyridazin-3-ylsulfanyl]-quinolin-4-ylamine, trifluoroacetic acid salt]",IC50,[2],100 to 1000 nM
"Cc1ccc2nnc(Sc3ccc4nccc(Sc5nncn5C)c4c3)n2n1 [Compound 57, 6-(6-Methyl-[1,2,4]triazolo[4,3-b]pyridazin-3-ylsulfanyl)-4-(4-methyl-4H-[1,2,4]triazol-3-ylsulfanyl)-quinoline]",IC50,[2],> 10000 nM
"CNc1ccnc2ccc(Sc3nnc4ccc(-c5cnn(C)c5)nn34)cc12 [Compound 28, Methyl-{6-[6-(1-methyl-1H-pyrazol-4-yl)-[1,2,4]triazolo[4,3-b]pyridazin-3-ylsulfanyl]-quinolin-4-yl}-amine]",IC50,[2],1000 to 10000 nM
"Cn1cc(-c2ccc3nnc(Sc4ccc5nccc(NC(=O)OC(C)(C)C)c5c4)n3n2)cn1 [Compound 36, {6-[6-(1-Methyl-1H-pyrazol-4-yl)-[1,2,4]triazolo[4,3-b]pyridazin-3-ylsulfanyl]-quinolin-4-yl}-carbamic acid tert-butyl ester]",IC50,[2],1000 to 10000 nM
"Cn1cc(-c2ccc3nnc(Sc4ccc5c(ccc[n+]5[O-])c4)n3n2)cn1 [Compound 27, 6-[6-(1-Methyl-1H-pyrazol-4-yl)-[1,2,4]triazolo[4,3-b]pyridazin-3-ylsulfanyl]-quinoline, N-oxide]",IC50,[2],1000 to 10000 nM
"Cc1cc2cc(Sc3nnc4ccc(-c5cnn(C)c5)nn34)ccc2nc1N [Compound 24, 3-Methyl-6-[6-(1-methyl-1H-pyrazol-4-yl)-[1,2,4]triazolo[4,3-b]pyridazin-3-ylsulfanyl]-quinolin-2-ylamine]",IC50,[2],100 to 1000 nM
"Cc1ccc2nnc(Sc3ccc4ncc(Br)cc4c3)n2n1 [Compound 43, 3-Bromo-6-(6-methyl-[1,2,4]triazolo[4,3-b]pyridazin-3-ylsulfanyl)-quinoline]",IC50,[2],100 to 1000 nM
